Assay results from paper PMC9738565, “N1-Benzyl Tryptamine Pan-SHIP1/2 Inhibitors: Synthesis and Preliminary Biological Evaluation as Anti-Tumor Agents” (Molecules, 2022).

Columns and labels:
[1] = system: recombinant human truncated SHIP1 (tSHIP1); assay: Malachite green phosphatase release assay, SHIP1; format: biochemical; settings: for Malachite (250 µM) % Inhib. SHIP1: 250 µM compound; for Malachite (500 µM) % Inhib. SHIP1: 500 µM compound; for activity against SHIP1 (in words): summary of Table 1
Description: These compounds were then tested for their activity against the two SHIP paralogs, SHIP1 and SHIP2 in the colorimetric malachite green phosphatase assay. The malachite green assay detects the amount of free phosphate produced from enzymatic reactions with SHIP and an inositol phospholipid substrate. The Malachite assay is useful for ruling out compounds that are fluorescent or have aggregation issues and is inexpensive, so it was utilized as the primary screen even though it is not as sensitive as other assays.
(§1) 4.7. Malachite Green Phosphatase Release Assays
(§2) Malachite green assays to monitor phosphatase release (Echelon Biosciences) were performed with recombinant human truncated SHIP1 (tSHIP1) and SHIP2 (Echelon Biosciences). Serial dilutions of the compounds dissolved in DMSO were added to the recombinant enzymes diluted in reaction buffer Rx (50 mM Hepes pH 7.4, 150 mM NaCl, 1 mM MgCl2, 0.25 mM EDTA) in triplicate reaction wells in 96-well plates. After incubation for 2 min at room temperature, 2.5 µL of 1 mM phosphatidylinositol 3,4,5-trisphosphate diC8 (PI(3,4,5)P3-diC8, Echelon Biosciences) was added to each reaction to a final concentration of 100 µM in a final volume of 25 µL /well. Following a 20 min incubation at 37 °C, 100 µL of Malachite Green solution (Echelon Biosciences) was added to each well and the plates were incubated at room temperature in the dark for 15 min. Plates were then read at 620 nm on a plate reader (Synergy 2, BioTek, Santa Clara, CA, USA). In addition, 3α-Aminocholestane, a known SHIP1 inhibitor, and AS1949490, a known SHIP2 inhibitor, were used as positive controls.

[2] = system: leukemia cell lines (NB4, HSB2, K562 and 697-Pre-B), multiple myeloma cell line OPM-2, breast cancer cell lines MBA-MD-231 and MCF-7; assay: MTT cell viability assay on cancer cell lines; format: cell-based; settings: Figure 3
From the text: . The assay monitors the ability of NADPH-dependent cellular oxidoreductases to reduce the dye MTT (3-(4,5-dimethylthiazol-2-yl)-2,5-diphenyltetrazolium bromide), which when reduced produces a purple color that can be easily quantified. This assay is often used to determine cell viability. […] All of these cell lines express SHIP1 due to their hematopoietic origin, as SHIP1 is selectively expressed in blood and bone marrow cells. Cytotoxicity was also found on the breast cancer cell lines MBA-MD-231 and MCF-7, which is likely due to the inhibition of SHIP2. […]. 4.9. MTT Cell Viability Assay
Cells were treated in triplicate or more with increasing concentrations of the compound. Cell viability was determined with a Cell Counting Kit (Dojindo Molecular Technologies, Rockville, MD, USA) per the manufacturer’s instructions. The […] (OD) of compound-treated cells was divided by the OD of their vehicle control, and the viability was expressed as a percentage of untreated cells. Results are expressed as mean ± standard error of the mean (SEM) of three individual experiments. […]

[3] = system: OCRL; parameters: method as in PMID 22033675; settings: cited from earlier work
[4] = molecular target: T1, SHIP2 (Homo sapiens, UniProt O15357); assay: Malachite green phosphatase release assay, SHIP2; format: biochemical
T1 construct: purchased Echelon Biosciences
T1 sequence (O15357 1-1258): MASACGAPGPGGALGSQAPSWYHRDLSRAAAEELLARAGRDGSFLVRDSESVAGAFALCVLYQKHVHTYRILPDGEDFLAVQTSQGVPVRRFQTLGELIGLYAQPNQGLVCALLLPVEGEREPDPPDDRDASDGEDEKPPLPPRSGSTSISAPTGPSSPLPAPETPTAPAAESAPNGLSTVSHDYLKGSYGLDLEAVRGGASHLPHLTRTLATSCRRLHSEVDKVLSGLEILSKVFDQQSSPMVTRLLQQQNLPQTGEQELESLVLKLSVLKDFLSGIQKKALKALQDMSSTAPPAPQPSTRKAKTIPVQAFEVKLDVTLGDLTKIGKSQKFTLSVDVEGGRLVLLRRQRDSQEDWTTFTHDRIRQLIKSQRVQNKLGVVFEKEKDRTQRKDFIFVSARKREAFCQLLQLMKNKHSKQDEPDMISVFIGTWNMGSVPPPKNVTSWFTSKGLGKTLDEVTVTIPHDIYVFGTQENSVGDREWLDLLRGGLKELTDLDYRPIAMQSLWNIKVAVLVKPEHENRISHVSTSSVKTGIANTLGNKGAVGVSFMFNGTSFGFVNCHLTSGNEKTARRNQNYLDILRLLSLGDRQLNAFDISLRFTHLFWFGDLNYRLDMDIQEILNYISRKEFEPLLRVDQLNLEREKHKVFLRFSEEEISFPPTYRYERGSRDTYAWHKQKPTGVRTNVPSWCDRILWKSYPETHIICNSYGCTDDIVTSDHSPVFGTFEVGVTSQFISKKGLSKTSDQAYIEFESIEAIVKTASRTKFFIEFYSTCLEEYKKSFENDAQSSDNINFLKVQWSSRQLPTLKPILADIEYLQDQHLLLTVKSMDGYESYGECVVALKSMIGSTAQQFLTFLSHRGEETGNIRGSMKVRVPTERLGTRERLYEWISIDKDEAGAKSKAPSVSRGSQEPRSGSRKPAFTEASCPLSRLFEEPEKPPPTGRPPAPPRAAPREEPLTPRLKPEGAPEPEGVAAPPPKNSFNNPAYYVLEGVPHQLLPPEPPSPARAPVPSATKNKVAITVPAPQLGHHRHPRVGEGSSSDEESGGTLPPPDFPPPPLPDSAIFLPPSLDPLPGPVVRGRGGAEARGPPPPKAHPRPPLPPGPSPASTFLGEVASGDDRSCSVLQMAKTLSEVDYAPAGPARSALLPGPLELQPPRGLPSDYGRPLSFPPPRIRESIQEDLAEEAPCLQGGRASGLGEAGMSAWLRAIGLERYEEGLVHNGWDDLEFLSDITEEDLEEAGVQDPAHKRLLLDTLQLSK
Description: (§3) These compounds were then tested for their activity against the two SHIP paralogs, SHIP1 and SHIP2 in the colorimetric malachite green phosphatase assay. The malachite green assay detects the amount of free phosphate produced from enzymatic reactions with SHIP and an inositol phospholipid substrate.
as §1, §2

[5] = system: several cell lines, especially breast cancer cells; parameters: method as in PMID 22033675, PMID 27716613; settings: cited from earlier work
[6] = system: multiple myeloma cells; parameters: method as in PMID 22033675; settings: followed by caspase cascade activation leading to extensive apoptosis; cited from earlier work
[7] = system: mice; assay: Side effect observed in mice; settings: in vivo
[8] = molecular target: T2, tSHIP1 (Homo sapiens, UniProt Q92835); assay: Fluorescence Polarization (FP) assay for the detection of PI(3,4)P2, SHIP1; format: biochemical
T2 sequence (Q92835 399-715 limits assumed): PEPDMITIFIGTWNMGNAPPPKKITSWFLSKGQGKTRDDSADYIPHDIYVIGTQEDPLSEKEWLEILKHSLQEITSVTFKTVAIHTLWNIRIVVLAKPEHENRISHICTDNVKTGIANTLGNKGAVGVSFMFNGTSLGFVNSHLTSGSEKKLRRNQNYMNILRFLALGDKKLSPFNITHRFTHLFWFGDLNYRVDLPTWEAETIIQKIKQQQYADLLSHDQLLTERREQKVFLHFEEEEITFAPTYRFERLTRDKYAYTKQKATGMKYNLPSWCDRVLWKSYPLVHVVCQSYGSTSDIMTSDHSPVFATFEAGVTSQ
Description: as §3
4.8. Fluorescence Polarization (FP) Assays for the Detection of PI(3,4)P2
The FP Assay for the detection of PI(3,4)P2 (Echelon Biosciences) was performed using tSHIP1 [48] with serial dilutions of the tryptamines in DMSO according to the manufacturer’s recommendation as previously described. […] 40 µL of 4 µM PIP3 (PI(3,4,5)P3-diC8) in Rx buffer is added to each reaction and incubated at 37 °C for 20 min, followed by heat inactivation for 3 min at 95 °C. Reactions were spun down briefly and 10 µL of each reaction was added in 6 replicate wells to a black 384-well plate provided with the FP kit. 10 µL of 1X reconstituted Detector (a phosphoinositide binding protein) in PBS is then added to each well, followed by 5 µL of 1X freshly diluted Probe (in PBS, a fluorophore-labeled phosphoinositide) protected from light. Assay plates are gently tapped to mix, the plate is sealed and spun down briefly and the reaction is allowed to equilibrate for 60 min at room temperature protected from light.

[9] = system: human blood cell cancers that express SHIP1; parameters: method as in PMID 20200281, PMID 22033675; settings: cited from earlier work
[10] = system: multiple myeloma; parameters: method as in PMID 22033675; settings: xenogeneic multiple myeloma model in mice; cited from earlier work

| SMILES | Malachite (250 µM) % Inhib. SHIP1 [1] | Malachite (500 µM) % Inhib. SHIP1 [1] | activity against SHIP1 (in words) [1] | cytotoxicity on cancer cell lines (in words) [2] | effect on OCRL [3] | inhibition at 250 µM ([4]; 250 µM compound, read-out: Malachite (250 µM) % Inhib. SHIP2) | inhibition at 500 µM ([4]; 500 µM compound, read-out: Malachite (500 µM) % Inhib. SHIP2) | activity against SHIP2 (in words) ([4]; summary of Table 1) | antitumor effects on cell lines [5] | cell cycle effect in multiple myeloma cells [6] | psychotropic effect in mice [7] | IC50 [8] | Akt activation and apoptosis [9] | protection from multiple myeloma growth [10] |
| --- | --- | --- | --- | --- | --- | --- | --- | --- | --- | --- | --- | --- | --- | --- |
| CSc1ccc2c(c1)c(CCN)c(C)n2Cc1ccc(Cl)cc1Cl.Cl [Compound 7d, 2-(1-(2,4-Dichlorobenzyl)-2-methyl-5-(methylthio)-1H-indol-3-yl)ethanaminium chloride] | 32% | 52% | significant activity | greatest cytotoxicity | – | – | – | – | – | – | – | – | – | – |
| CSc1ccc2c(c1)c(CCN)c(C)n2Cc1ccccc1Cl.Cl [Compound 1, 2-(1-(2-Chlorobenzyl)-2-methyl-5-(methylthio)-1H-indol-3-yl)ethanaminium chloride] | 7% | 51% | significant activity | – | no effect | 7% | 59% | significant activity | significant antitumor effects | G2/M cell cycle arrest | induced a psychotropic effect | 5 µM | – | – |
| CC(C)CCC[C@@H](C)[C@H]1CC[C@H]2[C@@H]3CC[C@H]4C[C@H](N)CC[C@]4(C)[C@H]3CC[C@]12C [Compound 3AC, 3α-aminocholestane] | – | – | – | – | – | – | – | – | – | – | – | – | reduces Akt activation and promotes apoptosis | effective in protecting the majority of mice |
